Source: patent US9181255B2, “Fused heteroaromatic pyrrolidinones as SYK inhibitors” (Takeda Pharmaceutical Company Limited, priority 2009, dated 2015)

These compounds were tested against SYK (Homo sapiens, UniProt P43405) (assay: SYK inhibition assay: SYK-mediated phosphorylation of FAM-labeled substrate (Caliper microfluidic)). Conditions: read-out: SYK Inhibition (pIC50) (converted).
Assay type: biochemical

Structure (SMILES) | IC50
Cc1c(-c2nc(N[C@@H]3CCCC[C@@H]3N)nc3c2C(=O)NC3)cnn1C [Example 46, 2-((1R,2S)-2-Aminocyclohexylamino)-4-(1,5-dimethyl-1H-pyrazol-4-yl)-6,7-dihydro-5H-pyrrolo[3,4-d]pyrimidin-5-one] | 1.58 µM
Cc1ncc(-c2nc(N[C@@H]3CCCC[C@@H]3N)c(F)c3c2C(=O)NC3)s1 [Example 122, 6-((1R,2S)-2-Aminocyclohexylamino)-7-fluoro-4-(2-methylthiazol-5-yl)-1H-pyrrolo[3,4-c]pyridin-3(2H)-one] | 0.631 µM
CCCn1cc(-c2nc(N[C@@H]3CCCC[C@@H]3N)nc3c2C(=O)NC3)cn1 [Example 21, 2-((1R,2S)-2-Aminocyclohexylamino)-4-(1-propyl-1H-pyrazol-4-yl)-6,7-dihydro-5H-pyrrolo[3,4-c]pyrimidin-5-one] | 0.501 µM
COC[C@H](N)CNc1nc(-c2cnn(C)c2)c2c(c1F)CNC2=O [Example 101, (R)-6-(2-Amino-3-methoxypropylamino)-7-fluoro-4-(1-methyl-1H-pyrazol-4-yl)-1H-pyrrolo[3,4-c]pyridin-3(2H)-one] | 0.0631 µM
COC[C@H](N)CNc1nc(Nc2cccc(C)c2)c2c(c1C#N)CNC2=O [Example 78, (R)-6-(2-Amino-3-methoxypropylamino)-3-oxo-4-(m-tolylamino)-2,3-dihydro-1H-pyrrolo[3,4-c]pyridine-7-carbonitrile] | 0.00398 µM
N[C@H]1CCCC[C@H]1Nc1nc2c(c(-c3cnn(Cc4ccccc4)c3)n1)C(=O)NC2 [Example 19, 2-((1R,2S)-2-Aminocyclohexylamino)-4-(1-benzyl-1H-pyrazol-4-yl)-6,7-dihydro-5H-pyrrolo[3,4-d]pyrimidin-5-one] | 0.251 µM
Cn1cc(-c2nc(N[C@@H]3CCCC[C@@H]3N)c(Cl)c3c2C(=O)NC3)cn1 [Example 29, 6-((1R,2S)-2-Aminocyclohexylamino)-7-chloro-4-(1-methyl-1H-pyrazol-4-yl)-1H-pyrrolo[3,4-c]pyridin-3(2H)-one] | 0.00316 µM
Cc1cccc(Nc2nc(N[C@@H]3CCCC[C@@H]3N)c(-c3ccccc3)c3c2C(=O)NC3)c1 [Example 87] | 0.0631 µM
COC[C@H](N)CNc1cc2c(c(Nc3cccc(C)c3)n1)C(=O)NC2 [Example 77, (R)-6-(2-Amino-3-methoxypropylamino)-4-(m-tolylamino)-1H-pyrrolo[3,4-c]pyridin-3(2H)-one] | 0.0316 µM
Cn1cc(-c2nc(N[C@@H]3CCCC(F)(F)[C@@H]3N)c(F)c3c2C(=O)NC3)cn1 (relative stereo) [Example 67, 6-(cis-2-Amino-3,3-difluorocyclohexylamino)-7-fluoro-4-(1-methyl-1H-pyrazol-4-yl)-1H-pyrrolo[3,4-c]pyridin-3(2H)-one] | 0.0398 µM
CCn1cc(-c2nc(N[C@@H]3CCCC[C@@H]3N)cc3c2C(=O)NC3)cn1 [Example 59, 6-((1R,2S)-2-Aminocyclohexylamino)-4-(1-ethyl-1H-pyrazol-4-yl)-1H-pyrrolo[3,4-c]pyridin-3(2H)-one] | 0.0794 µM
CC(C)n1cc(-c2nc(N[C@@H]3CCCC[C@@H]3N)c(F)c3c2C(=O)NC3)cn1 [Example 97, 6-((1R,2S)-2-Aminocyclohexylamino)-7-fluoro-4-(1-isopropyl-1H-pyrazol-4-yl)-1H-pyrrolo[3,4-c]pyridin-3(2H)-one] | 0.158 µM
CCOC[C@H](N)CNc1nc(Nc2cccc(C)c2)c2c(c1F)CNC2=O [Example 55, (R)-6-(2-Amino-3-ethoxypropylamino)-7-fluoro-4-(m-tolylamino)-1H-pyrrolo[3,4-c]pyridin-3(2H)-one] | 0.0158 µM
COCCn1cc(-c2nc(N[C@@H]3CCCC[C@@H]3N)nc3c2C(=O)NC3)cn1 [Example 22, 2-((1R,2S)-2-Aminocyclohexylamino)-4-(1-(2-methoxyethyl)-1H-pyrazol-4-yl)-6,7-dihydro-5H-pyrrolo[3,4-d]pyrimidin-5-one] | 2 µM
N[C@H]1CCCC[C@H]1Nc1nc(-c2ccsc2)c2c(c1F)CNC2=O [Example 106, 6-((1R,2S)-2-Aminocyclohexylamino)-7-fluoro-4-(thiophen-3-yl)-1H-pyrrolo[3,4-c]pyridin-3(2H)-one] | 0.00251 µM
Cn1cc(-c2nc(-c3cnn(C)c3)c3c(c2F)CNC3=O)cn1 [Example 98, 7-Fluoro-4,6-bis(1-methyl-1H-pyrazol-4-yl)-1H-pyrrolo[3,4-c]pyridin-3(2H)one] | 2 µM
N[C@H]1CCCC[C@H]1Nc1nc2c(c(-c3cc4ccccc4[nH]3)n1)C(=O)NC2 [Example 47, 2-((1R,2S)-2-Aminocyclohexylamino)-4-(1H-indol-2-yl)-6,7-dihydro-5H-pyrrolo[3,4-c]pyrimidin-5-one] | 0.00251 µM
CC(C)C[C@@H](Nc1nc(-c2ccc(C#N)s2)c2c(c1F)CNC2=O)C(N)=O [Example 116, (R)-2-(4-(5-Cyanothiophen-2-yl)-7-fluoro-3-oxo-2,3-dihydro-1H-pyrrolo[3,4-c]pyridin-6-ylamino)-4-methylpentanamide] | 0.00794 µM
CC(C)C[C@@H](Nc1nc(-c2ccoc2)c2c(c1F)CNC2=O)C(N)=O [Example 114, (R)-2-(7-Fluoro-4-(furan-3-yl)-3-oxo-2,3-dihydro-1H-pyrrolo[3,4-c]pyridin-6-ylamino)-4-methylpentanamide] | 0.251 µM

Structure (SMILES) | IC50
Cc1cccc(Nc2nc(N(C)CCN)nc3c2C(=O)NC3)c1 [Example 43, 2-((2-Aminoethyl)(methyl)amino)-4-(m-tolylamino)-6,7-dihydro-5H-pyrrolo[3,4-d]pyrimidin-5-one] | 5.01 µM
N[C@@H]1[C@H](Nc2nc(-c3cnn(C(F)F)c3)c3c(c2F)CNC3=O)CCCC1(F)F (relative stereo) [Example 68, 6-(cis-2-Amino-3,3-difluorocyclohexylamino)-4-(1-(difluoromethyl)-1H-pyrazol-4-yl)-7-fluoro-1H-pyrrolo[3,4-c]pyridin-3(2H)-one] | 0.1 µM
Cn1cc(-c2nc(N3CCC[C@H](N)C3)c(F)c3c2C(=O)NC3)cn1 [Example 96, (S)-6-(3-Aminopiperidin-1-yl)-7-fluoro-4-(1-methyl-1H-pyrazol-4-yl)-1H-pyrrolo[3,4-c]pyridin-3(2H)-one] | 0.2 µM
N[C@H]1COCC[C@H]1Nc1nc(-c2ccsc2)c2c(c1F)CNC2=O [Example 103, 6-((3R,4R)-3-Aminotetrahydro-2H-pyran-4-ylamino)-7-fluoro-4-(thiophen-3-yl)-1H-pyrrolo[3,4-c]pyridin-3(2H)-one] | 0.126 µM
N[C@H]1COCC[C@H]1Nc1nc(-c2cncs2)c2c(c1F)CNC2=O [Example 128, 6-((3R,4R)-3-Aminotetrahydro-2H-pyran-4-ylamino)-7-fluoro-4-(thiazol-5-yl)-1H-pyrrolo[3,4-c]pyridin-3(2H)-one] | 0.02 µM
Cc1ccc(-c2nc(N[C@@H]3CCCC[C@@H]3N)c(F)c3c2C(=O)NC3)s1 [Example 108, 6-((1R,2S)-2-Aminocyclohexylamino)-7-fluoro-4-(5-methylthiophen-2-yl)-1H-pyrrolo[3,4-c]pyridin-3(2H)-one] | 0.00251 µM
CC1NC(=O)c2c(-c3cnn(C)c3)nc(N[C@@H]3CCCC[C@@H]3N)c(F)c21 (stereo partly drawn) [Example 124, 6-((1R,2S)-2-Aminocyclohexylamino)-7-fluoro-1-methyl-4-(1-methyl-1H-pyrazol-4-yl)-1H-pyrrolo[3,4-c]pyridin-3(2H)-one] | 0.0251 µM
Cc1cn(-c2nc(N[C@@H]3CCCC[C@@H]3N)c(F)c3c2C(=O)NC3)cn1 [Example 131, 6-((1R,2S)-2-Aminocyclohexylamino)-7-fluoro-4-(4-methyl-1H-imidazol-1-yl)-1H-pyrrolo[3,4-c]pyridin-3(2H)-one] | > 20 µM
CC(C)C[C@@H](Nc1nc(-c2ccsc2)c2c(c1F)CNC2=O)C(N)=O [Example 110, (R)-2-(7-Fluoro-3-oxo-4-(thiophen-3-yl)-2,3-dihydro-1H-pyrrolo[3,4-c]pyridin-6-ylamino)-4-methylpentanamide] | 0.0501 µM
N[C@H]1CCCC[C@H]1Nc1nc2c(c(-c3cnn(-c4ccc(F)cc4)c3)n1)C(=O)NC2 [Example 100, 2-((1R,2S)-2-Aminocyclohexylamino)-4-(1-(4-fluorophenyl)-1H-pyrazol-4-yl)-6,7-dihydro-5H-pyrrolo[3,4-d]pyrimidin-5-one] | 0.158 µM
Cc1cccc(Nc2nc(CCCN)nc3c2C(=O)NC3)c1 [Example 49, 2-(3-Aminopropyl)-4-(m-tolylamino)-6,7-dihydro-5H-pyrrolo[3,4-d]pyrimidin-5-one] | > 20 µM
Cn1cc(-c2nc(N3CC[C@H](N)C3)c(F)c3c2C(=O)NC3)cn1 [Example 95, (S)-6-(3-Aminopyrrolidin-1-yl)-7-fluoro-4-(1-methyl-1H-pyrazol-4-yl)-1H-pyrrolo[3,4-c]pyridin-3(2H)-one] | 3.98 µM
Cc1ccc(-c2nc(N[C@@H]3CCOC[C@@H]3N)c(F)c3c2C(=O)NC3)s1 [Example 123, 6-((3R,4R)-3-Aminotetrahydro-2H-pyran-4-ylamino)-7-fluoro-4-(5-methylthiophen-2-yl)-1H-pyrrolo[3,4-c]pyridin-3(2H)-one] | 0.00794 µM
COC[C@H](N)CNc1nc(Nc2cccc(C)c2)c2c(c1F)CNC2=O [Example 79, (R)-6-(2-Amino-3-methoxypropylamino)-7-fluoro-4-(m-tolylamino)-1H-pyrrolo[3,4-c]pyridin-3(2H)-one] | 0.02 µM
CCn1cc(-c2nc(N[C@@H]3CCCC[C@@H]3N)c(F)c3c2C(=O)NC3)cn1 [Example 60, 6-((1R,2S)-2-Aminocyclohexylamino)-4-(1-ethyl-1H-pyrazol-4-yl)-7-fluoro-1H-pyrrolo[3,4-c]pyridin-3(2H)-one] | 0.0158 µM
Cc1cccc(Nc2nc(N[C@@H]3CCOC[C@@H]3N)c(F)c3c2C(=O)NC3)c1 [Example 89, 6-((3R,4R)-3-Aminotetrahydro-2H-pyran-4-ylamino)-7-fluoro-4-(m-tolylamino)-1H-pyrrolo[3,4-c]pyridin-3(2H)-one] | 0.00398 µM
Cc1cccc(Nc2nc(NCC3CCCN3)nc3c2C(=O)NC3)c1 (stereo not shown) [Example 44, 2-(Pyrrolidin-2-ylmethylamino)-4-(m-tolylamino)-6,7-dihydro-5H-pyrrolo[3,4-d]pyrimidin-5-one] | 0.631 µM
N[C@H]1CCCC[C@H]1Nc1cc2c(c(Nc3ccc4cn[nH]c4c3)n1)C(=O)NC2 [Example 23, 4-(1H-Indazol-6-ylamino)-6-((1R,2S)-2-aminocyclohexylamino)-1H-pyrrolo[3,4-c]pyridin-3(2H)-one] | 0.002 µM
